The text below walks through data of patent US8067445B2, “N,N-disubstituted aminoalkylbiphenyl antagonists of prostaglandin D2 receptors” (Panmira Pharmaceuticals, LLC, priority 2008, dated 2011).

Each structure is given as a SMILES string.

The target of this experiment is T1, human DP2 receptor (Homo sapiens, UniProt Q9Y5Y4).
T1 construct: expressed in transfected cells
T1 sequence (Q9Y5Y4 1-395): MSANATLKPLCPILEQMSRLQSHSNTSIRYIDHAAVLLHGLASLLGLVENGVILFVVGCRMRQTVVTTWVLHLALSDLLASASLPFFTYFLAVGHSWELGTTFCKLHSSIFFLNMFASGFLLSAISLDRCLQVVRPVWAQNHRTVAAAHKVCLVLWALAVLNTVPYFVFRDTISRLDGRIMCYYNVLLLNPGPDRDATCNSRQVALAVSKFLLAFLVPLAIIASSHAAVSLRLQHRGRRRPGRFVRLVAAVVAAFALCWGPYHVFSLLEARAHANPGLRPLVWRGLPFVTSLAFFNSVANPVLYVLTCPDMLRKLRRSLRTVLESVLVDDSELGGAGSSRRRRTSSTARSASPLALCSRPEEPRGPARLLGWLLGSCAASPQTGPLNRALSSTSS
In words: DP2/CRTH2 radioligand binding assay ([3H]PGD2). To be noted: [3H]PGD2 binding, membranes of HEK293 cells expressing human DP2; read-out: hDP2. How it is done: The ability of a compound to bind to the human DP2 receptor is assessed via a radioligand binding assay using [^3H]PGD2. HEK293 cells stably expressing recombinant human DP2 are resuspended in 10 mM Hepes, 7.4 containing 1 mM DTT, lysed and centrifuged at 75,000×g to pellet the membranes. The membranes are resuspended in 10 mM Hepes, 7.4 containing 1 mM DTT and 10% glycerol to approximately 5 mg protein/ml. Membranes (2-10 μg protein/well) are incubated in 96-well plates with 1 nM [^3H]PGD2 and test compound in Assay Buffer (50 mM Hepes, 10 mM MnCl2, 1 mM EDTA, plus or minus 0.2% human serum albumin, pH 7.4) for 60 minutes at room temperature. The reactions are terminated by rapid filtration through Whatman GF/C glass fibre filter plates. The filter plates were pre-soaked in 0.33% polyethylenimine for 30 minutes at room temperature then washed in Wash Buffer (50 mM Hepes, 0.5 M NaCl pH 7.4) prior to harvesting. After harvesting, the filter plates are washed 3 times with 1 ml cold Wash Buffer then dried. Scintillant is then added to the plates and the radioactivity retained on the filters is determined on a Packard TopCount (Perkin Elmer). Specific binding is determined as total radioactive binding minus non-specific binding in the presence of 10 μM PGD2. IC50s were determined using GraphPad prism analysis of drug titration curves.
On to `CCN(Cc1cc(C(F)(F)F)ccc1-c1cc(CC(=O)O)ccc1OC)C(=O)C(C)(C)C` [Compound 1-245, (2′-{[(2,2-Dimethyl-propionyl)-ethyl-amino]-methyl}-6-methoxy-4′-trifluoromethyl-biphenyl-3-yl)-acetic acid], for which the IC50 is 1000 to 30000 nM.

Turning to `CCN(Cc1cc(C(F)(F)F)ccc1-c1cc(CC(=O)O)ccc1OC)C(=O)CCc1ccccc1` [Compound 1-208, (2′-{[Ethyl-(3-phenyl-propionyl)-amino]-methyl}-6-methoxy-4′-trifluoromethyl-biphenyl-3-yl)-acetic acid], the IC50 is below 300 nM.

With `CCN(Cc1cc(C(F)(F)F)ccc1-c1cc(Cl)cc(CC(=O)O)c1)C(=O)OCc1ccc(F)cc1` [Compound 1-190, (5-Chloro-2′-{[ethyl-(4-fluoro-benzyloxycarbonyl)-amino]-methyl}-4′-trifluoromethyl-biphenyl-3-yl)-acetic acid], the IC50 is below 300 nM.

For the molecule `CCN(Cc1cc(C(F)(F)F)ccc1-c1cc([C@H](C)C(=O)O)cc(C(F)(F)F)c1)C(=O)NCc1ccccc1` [Compound 1-240, (S)-2-[2′-(3-Benzyl-1-ethyl-ureidomethyl)-5,4′-bis-trifluoromethyl-biphenyl-3-yl]-propionic acid], the IC50 was below 300 nM.

Consider `CCN(Cc1ccc(OC)cc1-c1cc(CC(=O)O)ccc1OC)C(=O)NCc1ccccc1` [Compound 1-197, [2′-(3-Benzyl-1-ethyl-ureidomethyl)-6,5′-dimethoxy-biphenyl-3-yl]-acetic acid], for which the IC50 was below 300 nM.

Turning to `CCN(Cc1cc(C(F)(F)F)ccc1-c1cc(Cl)cc(CC(=O)O)c1)C(=O)NCc1ccc(Cl)cc1` [Compound 1-192, {5-Chloro-2′-[3-(4-chloro-benzyl)-1-ethyl-ureidomethyl]-4′-trifluoromethyl-biphenyl-3-yl}-acetic acid], the IC50 was below 300 nM.

With `CCN(Cc1cc(C(F)(F)F)ccc1-c1cc(CC(=O)O)cc(C(F)(F)F)c1)C(=O)OCc1ccc(Cl)cc1` [Compound 1-189, (2′-{[(4-Chloro-benzyloxycarbonyl)-ethyl-amino]-methyl}-5,4′-bis-trifluoromethyl-biphenyl-3-yl)-acetic acid], the IC50 is below 300 nM.

For `CCOC(=O)Cc1ccc(OC)c(-c2ccc(C(=O)O)cc2CN(CC)C(=O)OCc2ccccc2)c1` [Compound 2-14, 2-[(Benzyloxycarbonyl-ethyl-amino)-methyl]-5′-ethoxycarbonylmethyl-2′-methoxy-biphenyl-4-carboxylic acid], the IC50 was in the range of 1000 to 30000 nM.

Take `CCN(Cc1cc(-c2ccc(F)cn2)ccc1-c1cc(CC(=O)O)ccc1OC)C(=O)C1CC1` [Compound 1-249, [2′-[(Cyclopropanecarbonyl-ethyl-amino)-methyl]-4′-(5-fluoro-pyridin-2-yl)-6-methoxy-biphenyl-3-yl]-acetic acid]: the IC50 is below 300 nM.

Consider `CCOc1ccc(-c2ccc(-c3cc(CC(=O)O)ccc3OC)c(CN(CC)C(=O)COc3ccc(Cl)cc3)c2)cn1` [Compound 1-229, [2′-({[2-(4-Chloro-phenoxy)-acetyl]-ethyl-amino}-methyl)-4′-(6-ethoxy-pyridin-3-yl)-6-methoxy-biphenyl-3-yl]-acetic acid], for which the IC50 was below 300 nM.

In the case of `CCN(Cc1cc(C(F)(F)F)ccc1-c1cc(Cl)cc(CC(=O)O)c1)C(=O)NC` [Compound 1-201, [5-Chloro-2′-(1-ethyl-3-methyl-ureidomethyl)-4′-trifluoromethyl-biphenyl-3-yl]-acetic acid], the IC50 is below 300 nM.

As for `CCOc1ccc(-c2ccc(-c3cc(CC(=O)O)ccc3OC)c(CN(CC)C(=O)CCc3ccccc3)c2)cn1` [Compound 1-256, (4′-(6-Ethoxy-pyridin-3-yl)-2′-{[ethyl-(3-phenyl-propionyl)-amino]-methyl}-6-methoxy-biphenyl-3-yl)-acetic acid], the IC50 is below 300 nM.

Consider `CCN(Cc1cc(C(F)(F)F)ccc1-c1cc(CC(=O)O[C@@H]2O[C@H](C(=O)O)[C@@H](O)[C@H](O)[C@H]2O)ccc1OC)C(=O)NCc1ccccc1` [Compound 2-17, (2S,3S,4S,5R,6S)-6-{2-[2′-(3-Benzyl-1-ethyl-ureidomethyl)-6-methoxy-4′-trifluoromethyl-biphenyl-3-yl]-acetoxy}-3,4,5-trihydroxy-tetrahydro-pyran-2-carboxylic acid], for which the IC50 was in the range of 300 to 1000 nM.

`CCN(Cc1cc(C(F)(F)F)ccc1-c1cc([C@@H](C)C(=O)N2C(=O)O[C@@H](c3ccccc3)[C@H]2C)ccc1OC)C(=O)C1CC1` [Compound 2-12, Cyclopropanecarboxylic acid ethyl-{2′-methoxy-5′-[(R)-1-methyl-2-((4R,5S)-4-methyl-2-oxo-5-phenyl-oxazolidin-3-yl)-2-oxo-ethyl]-4-trifluoromethyl-biphenyl-2-ylmethyl}-amide]: the IC50 was above 30000 nM.

As for `CCN(Cc1cc(C(F)(F)F)ccc1-c1cc([C@@H](C)C(=O)N2C(=O)O[C@@H](c3ccccc3)[C@H]2C)cc(C(F)(F)F)c1)C(=O)C1CC1` [Compound 2-15, Cyclopropanecarboxylic acid ethyl-{3′-[(R)-1-methyl-2-((4R,5S)-4-methyl-2-oxo-5-phenyl-oxazolidin-3-yl)-2-oxo-ethyl]-4,5′-bis-trifluoromethyl-biphenyl-2-ylmethyl}-amide], the IC50 lay within 1000 to 30000 nM.

With `CCN(Cc1cc(C(F)(F)F)ccc1-c1cc(CC(=O)O)cc(C(F)(F)F)c1)C(=O)c1ccccc1` [Compound 1-204, {2′-[(Benzoyl-ethyl-amino)-methyl]-5,4′-bis-trifluoromethyl-biphenyl-3-yl}-acetic acid], the IC50 is below 300 nM.

For the molecule `CCN(Cc1ccc(OC)cc1-c1cc(CC(=O)O)ccc1OC)C(=O)OCc1ccc(Cl)cc1` [Compound 1-195, (2′-{[(4-Chloro-benzyloxycarbonyl)-ethyl-amino]-methyl}-6,5′-dimethoxy-biphenyl-3-yl)-acetic acid], the IC50 was below 300 nM.

For `CCN(Cc1cc(-c2ccc3ncccc3c2)ccc1-c1cc(CC(=O)O)ccc1OC)C(=O)COc1ccc(Cl)cc1` [Compound 1-232, [2′-({[2-(4-Chloro-phenoxy)-acetyl]-ethyl-amino}-methyl)-6-methoxy-4′-quinolin-6-yl-biphenyl-3-yl]-acetic acid], the IC50 is below 300 nM.

For the molecule `CCN(Cc1cc(C(F)(F)F)ccc1-c1cc(C(C)C(=O)O)ccc1OC)C(=O)C1CC1` (stereo not shown) [Compound 1-217, 2-{2′-[(Cyclopropanecarbonyl-ethyl-amino)-methyl]-6-methoxy-4′-trifluoromethyl-biphenyl-3-yl}-propionic acid], the IC50 was below 300 nM.

Turning to `CCN(Cc1cc(C(F)(F)F)ccc1-c1cc([C@H](C)C(=O)O)ccc1OC)C(=O)C1CC1` [Compound 1-225, (S)-2-{2′-[(Cyclopropanecarbonyl-ethyl-amino)-methyl]-6-methoxy-4′-trifluoromethyl-biphenyl-3-yl}-propionic acid], the IC50 lay in the range of 1000 to 30000 nM.

Take `CCOc1ccc(-c2ccc(-c3cc(CC(=O)O)ccc3OC)c(CN(CC)C(=O)c3ccccc3)c2)cn1` [Compound 1-254, [2′-[(Benzoyl-ethyl-amino)-methyl]-4′-(6-ethoxy-pyridin-3-yl)-6-methoxy-biphenyl-3-yl]-acetic acid]: the IC50 was below 300 nM.

For `CCN(Cc1cc(C(F)(F)F)ccc1-c1cc(Cl)cc(C(C)C(=O)O)c1)C(C)=O` (stereo not shown) [Compound 1-211, 2-{2′-[(Acetyl-ethyl-amino)-methyl]-5-chloro-4′-trifluoromethyl-biphenyl-3-yl}-propionic acid], the IC50 is below 300 nM.
